In test [1] the test system is MOLT-4. In words: Induced cell death in Molt-4 cell line at a dose of E-9 M after 28 hour of incubation. The class given is functional, Homo sapiens.
Test [2] concerns MOLT-4. In words: Induced cell death in Molt-4 cell line at a dose of E-9 M after 3 hour of incubation. It is filed as functional, Homo sapiens.
For test [3], the system named is MOLT-4. In words: Induced cell death in Molt-4 cell line at a dose of E-9 M after 5 hour of incubation. The class given is functional, Homo sapiens.
Test [4] relates to MOLT-4. Nature of the test: Induced cell death in Molt-4 cell line at a dose of E-9 M after 8 hour of incubation. The class given is functional, Homo sapiens.
The subject of test [5] is MOLT-4. Nature of the test: Induced cell death in Molt-4 cell line at a dose of E-10 M after 1 hour of incubation. It is filed as functional, Homo sapiens.
For test [6], the system named is MOLT-4. In words: Induced cell death in Molt-4 cell line at a dose of E-10 M after 20 hour of incubation. It is filed as functional, Homo sapiens.
Test [7] deals with MOLT-4. In words: Induced cell death in Molt-4 cell line at a dose of E-10 M after 28 hour of incubation. The class given is functional, Homo sapiens.
Test [8] relates to MOLT-4. Nature of the test: Induced cell death in Molt-4 cell line at a dose of E-10 M after 3 hour of incubation. It is filed as functional, Homo sapiens.
Test [9] concerns MOLT-4. In words: Induced cell death in Molt-4 cell line at a dose of E-10 M after 5 hour of incubation. It is filed as functional, Homo sapiens.
For test [10], the system named is MOLT-4. In words: Induced cell death in Molt-4 cell line at a dose of E-10 M after 8 hour of incubation. It is filed as functional, Homo sapiens.
Test [11] relates to MOLT-4. Nature of the test: Induced cell death in Molt-4 cell line at a dose of E-8 M after 1 hour of incubation. It is filed as functional, Homo sapiens.
The test system of test [12] is MOLT-4. In words: Induced cell death in Molt-4 cell line at a dose of E-8 M after 20 hour of incubation. The class given is functional, Homo sapiens.
The test system of test [13] is MOLT-4. In words: Induced cell death in Molt-4 cell line at a dose of E-8 M after 28 hour of incubation. The class given is functional, Homo sapiens.
Test [14] has as its system MOLT-4. Nature of the test: Induced cell death in Molt-4 cell line at a dose of E-8 M after 3 hour of incubation. It is filed as functional, Homo sapiens.
The test system of test [15] is MOLT-4. Nature of the test: Induced cell death in Molt-4 cell line at a dose of E-8 M after 8 hour of incubation. The class given is functional, Homo sapiens.
Test [16] concerns MOLT-4. In words: Induced cell death in Molt-4 cell line at a dose of E-9 M after 1 hour of incubation. It is filed as functional, Homo sapiens.
Test [17] concerns MOLT-4. Nature of the test: Induced cell death in Molt-4 cell line at a dose of E-9 M after 20 hour of incubation. The class given is functional, Homo sapiens.
The nature of test [18]: Mean concentration required for the compound to inhibit tumor activity in 20 different cell lines was determined. It is filed as functional.
Test [19] concerns MOLT-4. Nature of the test: Induced cell death in Molt-4 cell line at a dose of E-8 M after 5 hour of incubation. It is filed as functional, Homo sapiens.

The text below walks through data of ChEMBL document CHEMBL1127254, “Induction of endonucleolytic DNA fragmentation and apoptosis by the duocarmycins” (Bioorg Med Chem Lett, 1994).

Structures are written as SMILES.

As a reminder, the IC50 is the concentration at which inhibition is half-maximal. Low readings indicate greater potency in that assay, high ones weaker potency in that assay. As for `COC(=O)c1cc2c([nH]1)C(=O)C=C1N(C(=O)c3cc4cc(OC)c(OC)c(OC)c4[nH]3)C[C@H]3C[C@]123` [DUOCARMYCIN], the Viability in the test with MOLT-4 [1] came out at 12%; in the test on MOLT-4 [2] it was 95%; in the test on MOLT-4 [3], 85%; with MOLT-4 [4], 52%; in the test on MOLT-4 [5], 95%; with MOLT-4 [6], 58%. Besides, the Viability came out at 58% in the test on MOLT-4 [7]; 95% in the test with MOLT-4 [8]; 90% in the test on MOLT-4 [9]; 65% with MOLT-4 [10]; 95% in the test with MOLT-4 [11]; 10% in the test on MOLT-4 [12]. For the same compound, the Viability in the test on MOLT-4 [13] is reported as 10%; with MOLT-4 [14], 92%; in the test with MOLT-4 [15] it was 42%; with MOLT-4 [16], 95%; in the test with MOLT-4 [17], 15%; in the test with MOLT-4 [19] it was 80%. In test [18], this compound showed an IC50 of 0.0001 µM.

The compound `COC(=O)[C@]1(C)Nc2c(O)cc3c(c2C1=O)[C@H](CCl)CN3C(=O)c1cc2cc(OC)c(OC)c(OC)c2[nH]1` came in with a concentration for half-maximal inhibition (IC50) in test [18] of 0.02 µM.
